In US12485125B2, “Treatment with P2X3 modulators” (GlaxoSmithKline Intellectual Property (No. 3) Limited, priority 2019, dated 2025):

Tested on: syngeneic C57BL/6 mice
Assay: Syngeneic mouse model of endometriosis: mechanical allodynia by von Frey pain stimulation procedure
Format: in vivo
Conditions: 30 mg/kg i.p., day 4 and 5, measured one hour following treatment; p<0.05; FIG. 1A
Experimental: A P2X3 receptor antagonist compound of Formula (I) described herein was evaluated in the syngeneic mouse model of endometriosis.
C57BL/6 mice (8 weeks old) were anesthetized before making a vertical incision on the abdomen. The uterus was collected and divided into pieces of 5 millimeters which were then surgically sutured onto the peritoneum of syngeneic recipient animals. The recipient mice were also treated with oestradiol and the resulting lesions were allowed to develop for 11 weeks.
Baseline measurements were established on Day 0 by measuring mechanical allodynia in all transplanted mice using a von Frey pain stimulation procedure in accordance with the protocol described below. On Day 1 transplanted mice were injected with saline (i.p.) and mechanical allodynia was again measured using the von Frey filament method (control). […] Mechanical allodynia was evaluated using the von Frey pain stimulation procedure. […] The mice were euthanized on Day 6 and evaluated for the presence of endometriotic lesions.
Animals were placed in small cages with a mesh or otherwise penetrable bottom. The pain threshold was evaluated with von Frey filaments using the simplified up-down method, which determines the mechanical force required to elicit a positive pain response in animals. […]

CNC(=O)c1cc(F)c(-c2nc3cc(C)ccn3c2C[C@H]2CN(C(=O)OC)CCO2)c(F)c1 [Compound 1]
stimulus threshold (von Frey test; pressure stimulus required to elicit behavioral response, change from baseline Day 0): greater stimulus threshold
